In the first test the target is T1, DPP-4 (human recombinant) (Homo sapiens, UniProt P27487).
T1 construct: purchased Sigma Aldrich D3446
T1 sequence (P27487 whole entry): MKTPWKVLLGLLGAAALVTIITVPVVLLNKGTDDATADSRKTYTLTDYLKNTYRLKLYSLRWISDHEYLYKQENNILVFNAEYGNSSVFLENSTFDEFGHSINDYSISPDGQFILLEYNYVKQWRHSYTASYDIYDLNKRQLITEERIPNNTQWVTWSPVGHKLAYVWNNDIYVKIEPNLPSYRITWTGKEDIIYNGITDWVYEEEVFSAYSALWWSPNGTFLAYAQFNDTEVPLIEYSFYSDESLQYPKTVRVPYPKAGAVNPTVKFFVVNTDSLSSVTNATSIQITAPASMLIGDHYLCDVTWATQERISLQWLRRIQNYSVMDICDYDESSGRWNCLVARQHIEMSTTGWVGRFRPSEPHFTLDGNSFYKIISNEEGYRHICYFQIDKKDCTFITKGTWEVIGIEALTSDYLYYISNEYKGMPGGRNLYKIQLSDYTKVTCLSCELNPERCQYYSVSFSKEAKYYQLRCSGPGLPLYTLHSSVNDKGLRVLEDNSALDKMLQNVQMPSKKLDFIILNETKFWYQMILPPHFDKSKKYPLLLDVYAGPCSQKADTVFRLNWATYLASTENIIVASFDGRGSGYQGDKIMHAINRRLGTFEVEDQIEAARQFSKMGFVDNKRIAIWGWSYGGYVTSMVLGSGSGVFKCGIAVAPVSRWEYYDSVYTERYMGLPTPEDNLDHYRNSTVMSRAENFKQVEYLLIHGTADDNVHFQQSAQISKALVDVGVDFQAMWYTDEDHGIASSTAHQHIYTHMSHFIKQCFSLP
Nature of the test: In vitro assay for DPP-4 inhibitory activity (fluorescence, Gly-Pro-AMC).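 Note: fluorescence of released AMC (excitation 360 nm, emission 460 nm) followed kinetically over 30 min at 37 °C in Tris-HCl pH 8.0.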 The format is biochemical. The note with it: DPP-4 inhibition, fluorescence method.
By IC50 is commonly meant the point on the concentration scale where inhibition reaches its midpoint. Regarding `O=c1c(O)c(-c2cc(O)c(O)c(O)c2)oc2cc(O)cc(O)c12` [E19, Myricetin], the IC50 was less than 200 µM.

The test is the same for the next values; noted with them: flavonoid 200 μM; mean ± SD, three independent experiments.
What is called % Inhibition is the drop in the measured response relative to a control, in per cent. Take `COc1ccc(CCC(=O)c2c(O)cc(O[C@@H]3O[C@H](CO)[C@@H](O)[C@H](O)[C@H]3O[C@@H]3O[C@@H](C)[C@H](O)[C@@H](O)[C@H]3O)cc2O)cc1O` [G2, Neosperidin dihydrochalcone]: the “% Inhibition at 200μM” value is listed as 17.15 ± 0.23%.

In the case of Myricitrin [E20], the “% Inhibition at 200μM” value came to 39.8 ± 0.78%.

The same test, now with this note: flavonoid 200 μM; mean ± SD, three independent experiments; read-out: % Inhibition at 200μM.
What is called inhibition is the relative decrease from the control value, in per cent. As to `O=c1cc(-c2ccccc2)oc2cc(O)cc(O)c12` [A3, Chrysin], the inhibition at 200 µM came out at 26.1 ± 3.07%.

As to `COc1ccc(-c2cc(=O)c3c(O)cc(O)cc3o2)cc1O` [A4, Diosmetin], the inhibition at 200 µM was 22.2 ± 1.22%.

With `COc1ccc(-c2cc(=O)c3c(O)cc(O[C@@H]4O[C@H](CO[C@@H]5O[C@@H](C)[C@H](O)[C@@H](O)[C@H]5O)[C@@H](O)[C@H](O)[C@H]4O)cc3o2)cc1O` [A5, Diosmin], the inhibition at 200 µM is 16.4 ± 1.73%.

Turning to `O=c1cc(-c2ccc(O)c(O)c2)oc2cc(O)c([C@@H]3O[C@H](CO)[C@@H](O)[C@H](O)[C@H]3O)c(O)c12` [A6, Isoorientin], the inhibition at 200 µM was found to be 42.63 ± 0.33%.

As to `O=c1cc(-c2ccc(O)cc2)oc2cc(O)c([C@@H]3O[C@H](CO)[C@@H](O)[C@H](O)[C@H]3O)c(O)c12` [A7, Isovitexin], the inhibition at 200 µM was determined as 42.4 ± 1.23%.

As for `O=c1cc(-c2ccc(O)c(O)c2)oc2cc(O)cc(O)c12` [A8, Luteolin], the inhibition at 200 µM worked out at 47.5 ± 0.89%.

Regarding `O=C(O)C1OC(Oc2cc(O)c3c(=O)cc(-c4ccc(O)c(O)c4)oc3c2)C(O)C(O)C1O` (centres unmarked) [A9, Luteolin 7-O-glucuronide], the inhibition at 200 µM is 35.65 ± 0.11%.

On to `O=c1cc(-c2ccc(O)c(O)c2)oc2cc(O[C@@H]3O[C@H](CO)[C@@H](O)[C@H](O)[C@H]3O)cc(O)c12` [A10, Luteoloside], for which the inhibition at 200 µM stood at 45.6 ± 0.62%.

In the case of `COc1ccc(-c2cc(=O)c3c(OC)c(OC)c(OC)c(OC)c3o2)cc1` [A13, Tangeretin], the inhibition at 200 µM was 14.2 ± 1.06%.

With `O=c1cc(-c2ccc(OC3OC(CO)C(O)C(O)C3O)cc2)oc2c(C3OC(CO)C(O)C(O)C3O)c(O)cc(O)c12` (centres unmarked) [A16, Vitexin 4'-O-glucoside], the inhibition at 200 µM was determined as 45.9 ± 1.48%.

For the molecule `COc1ccc(-c2coc3cc(O)cc(O)c3c2=O)cc1` [B1, Biochanin A], the inhibition at 200 µM was determined as 14.3 ± 1.48%.

Regarding `COc1ccc(-c2coc3cc(O)ccc3c2=O)cc1O` [B2, Calycosin], the inhibition at 200 µM was found to be 43 ± 2.41%.

As to `O=c1c(-c2ccc(O)cc2)coc2cc(O)ccc12` [B3, Daidzein], the inhibition at 200 µM stood at 19.2 ± 3.44%.

As for `COc1ccc(-c2coc3cc(O)ccc3c2=O)cc1` [B4, Formononetin], the inhibition at 200 µM was 17.6 ± 0.19%.

For `O=c1c(-c2ccc(O)cc2)coc2cc(O)cc(O)c12` [B5, Genistein], the inhibition at 200 µM was determined as 15.3 ± 0.21%.

Consider `COc1cc(O)c2c(=O)cc(-c3ccc(O)cc3)oc2c1` [B6, Genkwanin], for which the inhibition at 200 µM stood at 20.8 ± 1.92%.

On to `O=C1c2c(O)cc(O)cc2O[C@H](c2ccc(O)cc2O)[C@H]1O` [C1, Dihydromorin], for which the inhibition at 200 µM was 30.9 ± 1.22%.

On to `O=C1c2c(O)cc(O)cc2O[C@H](c2cc(O)c(O)c(O)c2)[C@H]1O` [C2, Dihydromyricetin], for which the inhibition at 200 µM stood at 20.6 ± 0.36%.

For `COc1ccc([C@@H]2CC(=O)c3c(O)cc(O)cc3O2)cc1O` [C3, Hesperetin], the inhibition at 200 µM was less than 10%.

As to `O=C1C[C@@H](c2ccc(O)cc2)Oc2cc(O)ccc21` [C5, Liquiritigenin], the inhibition at 200 µM is 17.1 ± 0.94%.

In the case of `Oc1cc(O)c2c(c1)OC(c1ccc(O)c(O)c1)C(O)C2` (centres unmarked) [D1, Catechin], the inhibition at 200 µM is less than 10%.

`Oc1cc(O)c2c(c1)O[C@H](c1ccc(O)c(O)c1)[C@H](O)C2` [D2, Epicatechin]: the inhibition at 200 µM is less than 10%.

In the case of `O=C(O[C@@H]1Cc2c(O)cc(O)cc2O[C@@H]1c1cc(O)c(O)c(O)c1)c1cc(O)c(O)c(O)c1` [D3, Epigallocatechin gallate], the inhibition at 200 µM is less than 10%.

In the case of `O=c1c(O[C@@H]2O[C@@H](CO)[C@H](O)[C@H]2O)c(-c2ccc(O)c(O)c2)oc2cc(O)cc(O)c12` [E1, Avicularin], the inhibition at 200 µM turned out to be 27.1 ± 0.42%.

Take `O=c1c(O)c(-c2ccccc2)oc2cc(O)cc(O)c12` [E2, Galangin]: the inhibition at 200 µM was determined as 38.26 ± 0.36%.

Take `O=c1c(O[C@@H]2O[C@H](CO)[C@@H](O)[C@H](O)[C@H]2O)c(-c2ccc(O)c(O)c2)oc2cc(O)cc(O)c12` [E5, Isoquercitrin]: the inhibition at 200 µM was determined as 36.9 ± 1.13%.

Consider `COc1cc(-c2oc3cc(O)cc(O)c3c(=O)c2OC2OC(CO)C(O)C(O)C2O)ccc1O` (centres unmarked) [E7, Isorhamnetin 3-O-glucoside], for which the inhibition at 200 µM came to 38.6 ± 1.41%.

On to `COc1cc(-c2oc3cc(O)cc(O)c3c(=O)c2OC2OC(CO)C(O)C(O)C2OC2OC(C)C(O)C(O)C2O)ccc1O` (centres unmarked) [E8, Isorhamnetin 3-O-neohesperidin], for which the inhibition at 200 µM was 40.6 ± 0.42%.

`COc1ccc(-c2oc3cc(O)cc(O)c3c(=O)c2O)cc1` [E9, Kaempferide]: the inhibition at 200 µM is 15.7 ± 0.58%.

In the case of `C[C@@H]1O[C@@H](Oc2cc(O)c3c(=O)c(O[C@@H]4O[C@@H](C)[C@H](O)[C@@H](O)[C@H]4O)c(-c4ccc(O)cc4)oc3c2)[C@H](O)[C@H](O)[C@H]1O` [E10, Kaempferitrin], the inhibition at 200 µM was determined as 19.3 ± 0.47%.

Regarding `O=c1c(O)c(-c2ccc(O)cc2)oc2cc(O)cc(O)c12` [E11, Kaempferol], the inhibition at 200 µM amounted to 32.23 ± 0.19%.

On to `O=c1c(OC2OC(CO)C(O)C(O)C2O)c(-c2ccc(O)cc2)oc2cc(O)cc(O)c12` (centres unmarked) [E13, Kaempferol 3-O-galactoside], for which the inhibition at 200 µM was found to be 46.3 ± 1.57%.

Regarding `CC1OC(OCC2OC(Oc3c(-c4ccc(O)cc4)oc4cc(O)cc(O)c4c3=O)C(O)C(O)C2O)C(O)C(O)C1O` (centres unmarked) [E14, Kaempferol 3-O-rutinoside], the inhibition at 200 µM is 36.83 ± 0.01%.

In the case of `O=c1c(OC2OC(CO)C(O)C(O)C2OC2OC(CO)C(O)C(O)C2O)c(-c2ccc(O)cc2)oc2cc(O)cc(O)c12` (centres unmarked) [E15, Kaempferol 3-O-sophoroside], the inhibition at 200 µM turned out to be 43.2 ± 1.48%.

Consider `O=c1c(O)c(-c2ccc(OC3OC(CO)C(O)C(O)C3O)cc2)oc2cc(O)cc(O)c12` (centres unmarked) [E16, Kaempferol 4'-O-glucoside], for which the inhibition at 200 µM was 37.2 ± 0.64%.

`O=c1c(O)c(-c2ccc(O)cc2O)oc2cc(O)cc(O)c12` [E18, Morin]: the inhibition at 200 µM came out at 42.8 ± 0.91%.

Consider `COc1c(-c2ccc(O)c(O)c2)oc2cc(O)cc(O)c2c1=O` [E22, 3-O-Methylquercetin], for which the inhibition at 200 µM turned out to be 45.6 ± 0.78%.

Regarding `O=c1c(OC2OC(CO)C(O)C(O)C2O)c(-c2ccc(O)c(O)c2)oc2cc(OC3OC(COC4OC(CO)C(O)C(O)C4O)C(O)C(O)C3O)cc(O)c12` (centres unmarked) [E24, Quercetin 3-O-glu-7-O-gentiobioside], the inhibition at 200 µM came out at 33.9 ± 1.07%.

In the case of `CC1OC(Oc2cc(O)c3c(=O)c(O)c(-c4ccc(O)c(O)c4)oc3c2)C(O)C(O)C1O` (centres unmarked) [E25, Quercetin 7-O-rhamnoside], the inhibition at 200 µM worked out at 48.96 ± 0.12%.

`C[C@@H]1O[C@@H](Oc2c(-c3ccc(O)c(O)c3)oc3cc(O)cc(O)c3c2=O)[C@H](O)[C@H](O)[C@H]1O` [E26, Quercitrin]: the inhibition at 200 µM was 47.65 ± 0.36%.

Regarding `COc1cc(O)c2c(=O)c(O)c(-c3ccc(O)c(O)c3)oc2c1` [E27, Rhamnetin], the inhibition at 200 µM amounted to 22.2 ± 0.63%.

`C[C@@H]1O[C@@H](OC[C@H]2O[C@@H](Oc3c(-c4ccc(O)c(O)c4)oc4cc(O)cc(O)c4c3=O)[C@H](O)[C@@H](O)[C@@H]2O)[C@H](O)[C@H](O)[C@H]1O` [E28, Rutin]: the inhibition at 200 µM is 42.7 ± 1.28%.

Turning to `Oc1cc(O)c2cc(O)c(-c3ccc(O)c(O)c3)[o+]c2c1` [F1, Cyanidin], the inhibition at 200 µM was found to be 18.8 ± 0.4%.

Turning to `COc1cc(-c2[o+]c3cc(O)cc(OC4OC(CO)C(O)C(O)C4O)c3cc2OC2OC(CO)C(O)C(O)C2O)cc(OC)c1O` (centres unmarked) [F4, Malvin], the inhibition at 200 µM turned out to be 13.7 ± 2.07%.

Take `Oc1ccc(-c2[o+]c3cc(O)cc(O)c3cc2O)cc1` [F5, Pelargonidin]: the inhibition at 200 µM was less than 10%.

For `O=C(CCc1ccc(O)cc1)c1c(O)cc(O)cc1O[C@@H]1O[C@H](CO)[C@@H](O)[C@H](O)[C@H]1O` [G4, Phlorizin], the inhibition at 200 µM is less than 10%.

Still in this test, the particulars now being: read-out: % Inhibition at 200μM.
On to `C[C@@H]1O[C@@H](OC[C@H]2O[C@@H](Oc3cc(O)c4c(c3)O[C@H](c3ccc(O)cc3)CC4=O)[C@H](O)[C@@H](O)[C@@H]2O)[C@H](O)[C@H](O)[C@H]1O` [A11, Narirutin], for which the inhibition at 200 µM came out at 13.97 ± 0.13%.

As to `O=c1cc(-c2ccc(O)c(O)c2)oc2c([C@@H]3O[C@H](CO)[C@@H](O)[C@H](O)[C@H]3O)c(O)cc(O)c12` [A12, Orientin], the inhibition at 200 µM was 38.6 ± 2.1%.

`O=c1cc(-c2ccc(O)cc2)oc2c([C@@H]3O[C@H](CO)[C@@H](O)[C@H](O)[C@H]3O)c(O)cc(O)c12` [A14, Vitexin]: the inhibition at 200 µM came out at 27 ± 1.35%.

For the molecule `COc1ccc(C2CC(=O)c3c(O)cc(OC4OC(COC5OC(C)C(O)C(O)C5O)C(O)C(O)C4O)cc3O2)cc1O` (centres unmarked) [C4, Hesperidin], the inhibition at 200 µM was less than 10%.

Turning to `O=c1c(O)c(-c2ccc(O)cc2)oc2c(O)c(O)cc(O)c12` [E3, Herbacetin], the inhibition at 200 µM was found to be 25.7 ± 1.82%.

For the molecule `COc1cc(-c2oc3cc(O)cc(O)c3c(=O)c2O)ccc1O` [E6, Isorhamnetin], the inhibition at 200 µM worked out at 29.4 ± 1.52%.

`O=c1c(O)c(-c2ccc(O)cc2)oc2cc(OC3OC(CO)C(O)C(O)C3O)cc(O)c12` (centres unmarked) [E17, Kaempferol 7-O-glucoside]: the inhibition at 200 µM is 48.8 ± 1.07%.

On to `COc1cc(-c2[o+]c3cc(O)cc(O)c3cc2OC2OC(CO)C(O)C(O)C2O)cc(OC)c1O` (centres unmarked) [F3, Malvidin 3-O-glucoside], for which the inhibition at 200 µM was 15 ± 2.42%.

Consider `O=C(CCc1ccc(O)cc1)c1c(O)cc(O)cc1O` [G3, Phloretin], for which the inhibition at 200 µM turned out to be 17.8 ± 1.21%.

The target in the next test is T1, DPP-4 (human recombinant). Nature of the test: Fluorescence quenching experiments (Stern-Volmer, binding constant, thermodynamic parameters).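 Note: intrinsic DPP-4 fluorescence emission scanned 290–500 nm, corrected for flavonoid background and inner-filter absorbance, compared without versus with flavonoid quencher.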 The note with it: 310 K.
In the case of `O=c1c(O)c(-c2cc(O)c(O)c(O)c2)oc2cc(O)cc(O)c12` [E19, Myricetin], the “ΔG (Gibbs free-energy change)” value was -5.946 kcal/mol.
